Source: US20230399287A1, “NOVEL COMPOUNDS” (Sitryx Therapeutics Limited, priority 2020, published 2023)
pEC50, pIC50: −log10 of the molar value.

Columns and labels:
[1] = system: NRF2; assay: NRF2 +/- GSH activation assay (DiscoverX PathHunter NRF2 translocation kit); format: cell-based; details: for pEC50: Homo sapiens, U2OS, U2OS PathHunter cells
[2] = system: hepatocytes; assay: Hepatocyte stability assay (human); format: in vitro ADME; details: 10 μM compound, 60 min
In short: (§1)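 Cryopreserved human or mouse hepatocytes (0.5×10^6 cells/mL in Leibovitz buffer) were incubated with 10 μM compound (0.1% DMSO) at 37° C in duplicate, alongside a buffer-only control. Samples taken from 0 to 60 min were analysed by LC-MS/MS. Half-life and Clint (μL min^−1 10^−6 cells) came from the ln % remaining versus time slope.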

[3] = Hepatocyte stability assay (human); format: in vitro ADME; details: human, cryopreserved hepatocytes, 10 μM compound, 60 min, read-out: T½
In short: as §1

[4] = system: IL-1β; assay: THP-1 AlphaLISA IL-1β cytokine assay; format: cell-based; details: for pIC50: Homo sapiens, THP-1, differentiated THP-1 cells, LPS 24 hr then Nigericin 1 hour
In short: (§2)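 THP-1 cells differentiated with PMA for 72 h, pre-incubated with compound for 30 min, primed with LPS for 24 h, then given nigericin for 1 h at 37 °C. IL-1β and IL-6 in supernatants were read by AlphaLISA. % inhibition was set against ±LPS controls and IC50 taken from concentration–response curves.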

[5] = system: IL-6; assay: THP-1 AlphaLISA IL-6 cytokine assay; format: cell-based; details: for pIC50: Homo sapiens, THP-1, differentiated THP-1 cells, LPS 24 hr then Nigericin 1 hour
In short: as §2

[6] = system: hepatocytes; assay: Hepatocyte stability assay (mouse); format: in vitro ADME; details: 10 μM compound, 60 min
In short: as §1

[7] = Hepatocyte stability assay (mouse); format: in vitro ADME; details: mouse, cryopreserved hepatocytes, 10 μM compound, 60 min, read-out: T½
In short: as §1

[8] = +GSH, normalised to dimethyl fumarate high control
[9] = −GSH, normalised to dimethyl fumarate high control
[10] = THP-1 cells, statement in words

Compound	Emax ([1]; +GSH, data from repeated experiments) [%]	Emax [1, 8] [%]	pEC50 ([1]; +GSH)	pEC50 ([1]; −GSH)	Emax ([1]; −GSH, data from repeated experiments) [%]	Emax [1, 9] [%]	Clint [2] [μL min^−1 10^−6 cells]	half-life at 10 μM [3] [h]	pIC50 [4]	cytokine-lowering potencies for IL-1β compared to dimethyl itaconate, dimethyl fumarate and 4-octyl itaconate [4, 10]	pIC50 [5]	cytokine-lowering potencies for IL-6 compared to dimethyl itaconate [5, 10]	Clint [6] [μL min^−1 10^−6 cells]	half-life at 10 μM [7] [h]
C=C(CC(=O)OC1(c2ccc(C(F)(F)F)cc2)CCC1)C(=O)O [Example 1, 2-methylene-4-oxo-4-(1-(4-(trifluoromethyl)phenyl)cyclobutoxy)butanoic acid]	14	10	< 4.00	< 4.00	17	37	11	1.93	6.10	much improved cytokine-lowering potencies	4.21	improved cytokine-lowering potencies	13	2.52
C=C(CC(=O)OC(C)(C)c1ccc(C(F)(F)F)cc1)C(=O)O [Example 2, 2-methylene-4-oxo-4-((2-(4-(trifluoromethyl)phenyl)propan-2-yl)oxy)butanoic acid]	–	0	< 4.00	< 4.00	–	0	8	2.83	6.10	–	< 4.20	–	35	0.583
C=C(CC(=O)OC1(c2ccc(C(F)(F)F)cc2)CCCC1)C(=O)O [Example 7, 2-methylene-4-oxo-4-((1-(4-(trifluoromethyl)phenyl)cyclopentyl)oxy)butanoic acid]	–	0	< 4.00	< 4.00	–	6	20	1.1	5.43	–	< 4.00	–	14	1.97
C=C(CC(=O)OC1(c2ccc(Cl)cc2)CCC1)C(=O)O [Example 8, 4-(1-(4-chlorophenyl)cyclobutoxy)-2-methylene-4-oxobutanoic acid]	–	0	< 4.00	< 4.00	–	24	11	2.07	5.59	–	4.19	–	26	1.08
C=C(CC(=O)OC1(c2ccc(SC(F)(F)F)cc2)CCC1)C(=O)O [Example 9, 2-methylene-4-oxo-4-(1-(4-((trifluoromethyl)thio)phenyl)cyclobutoxy)butanoic acid]	–	6	< 4.00	< 4.00	–	14	15	1.52	5.55	–	< 4.00	–	44	0.633
C=C(CC(=O)OC1(c2ccc(C(F)(F)F)cc2)CC1)C(=O)O [Example 11, 2-methylene-4-oxo-4-(1-(4-(trifluoromethyl)phenyl)cyclopropoxy)butanoic acid]	–	0	< 4.00	< 4.00	–	11	6	3.62	5.85	–	< 4.00	–	24	1.18
C=C(CC(=O)OC1(c2ccc(C(F)(F)F)c(Cl)c2)CCC1)C(=O)O [Example 12, 4-(1-(3-chloro-4-(trifluoromethyl)phenyl)cyclobutoxy)-2-methylene-4-oxobutanoic acid]	–	46	< 4.00	4.09	–	66	46	0.617	5.35	–	4.08	–	42	0.75
C=C(CC(=O)OCc1ccc(C(F)(F)F)cc1)C(=O)O [Example 13, 2-methylene-4-oxo-4-((4-(trifluoromethyl)benzyl)oxy)butanoic acid]	–	25	< 4.00	4.41	–	54	<3	> 7.67	5.23	–	< 4.00	–	42	0.617
C/C(=C\C(=O)OC1(c2ccc(C(F)(F)F)cc2)CCC1)C(=O)O [Example 21, (E)-2-methyl-4-oxo-4-(1-(4-(trifluoromethyl)phenyl)cyclobutoxy)but-2-enoic acid]	–	4	< 4.00	< 4.00	–	0	31	0.917	5.14	–	4.30	–	71	0.45
C=C(CC(=O)OC1(c2ccc(-c3ccc(C(F)(F)F)cc3)cc2)CCC1)C(=O)O [Example 26, 2-methylene-4-oxo-4-(1-(4′-(trifluoromethyl)-[1,1′-biphenyl]-4-yl)cyclobutoxy)butanoic acid]	–	34	< 4.00	4.62	–	88	238	0.1	4.38	–	5.43	–	>460	< 0.05
C=C(CC(=O)OC1(c2ccc(C#CC(F)(F)F)cc2)CCC1)C(=O)O [Example 36, 2-methylene-4-oxo-4-(1-(4-(3,3,3-trifluoroprop-1-yn-1-yl)phenyl)cyclobutoxy)butanoic acid]	–	90	5.07	5.05	–	116	12	1.87	< 4.50	–	5.25	–	>460	< 0.05
C=C(CC(=O)OC1(c2ccc(C(F)(F)F)cc2)CSC1)C(=O)O [Example 40, 2-methylene-4-oxo-4-((3-(4-(trifluoromethyl)phenyl)thietan-3-yl)oxy)butanoic acid]	–	9	< 4.00	5.77	–	61	12	1.68	6.10	–	< 4.00	–	25	1.48
C=C(CC(=O)OC1(c2ccc(C(F)(F)F)cn2)CC1)C(=O)O [Example 58, 2-methylene-4-oxo-4-(1-(5-(trifluoromethyl)pyridin-2-yl)cyclopropoxy)butanoic acid]	–	0	< 4.00	< 4.00	–	1	5	6.2	5.49	–	< 4.37	–	5	5.45
C=C(CC(=O)OC1(c2ccc(C(F)(F)F)nn2)CCC1)C(=O)O [Example 62, 2-methylene-4-oxo-4-(1-(6-(trifluoromethyl)pyridazin-3-yl)cyclobutoxy)butanoic acid]	–	4	< 4.00	< 4.00	–	1	<3	> 7.67	5.30	–	< 4.50	–	4	7.23
